Test results from US20240239790A1, “7-Morpholino-1,6-Naphthyridin-5-yl Derivatives and Pharmaceutical Compositions Thereof Useful as DNA-PK Inhibitor” (adMare Therapeutics Society, priority 2021, published 2024).
Like-named read-outs stand apart in the source and are kept apart here.

Legend:
[1] = test system: pDNA-PK induction in HCT116 tumour spheroids; experiment: Multicellular tumour spheroid + radiation, pDNA-PK (ser2056) inhibition, immunohistochemical endpoint, HCT116; format: cell-based; details: Homo sapiens, 20 Gy, 20% O2
Summary of the method: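 HCT116 spheroids (~0.5 mm) in MEM/10% FBS, 20% O2, 37° C., pre-incubated 1 h with compound (10 or 5 μM down to 3.5 nM), irradiated 20 Gy, then 2 h further with compound. Cryosections immunostained for pDNA-PK ser2056; EC50 is concentration halving radiation-induced pDNA-PK.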

[2] = Hepatocyte Stability Assay, mouse hepatocytes; format: in vitro ADME; details: for hepatocyte CLint at 1 uM: male, CD-1, cryopreserved hepatocytes, pH 7.3, mouse hepatocytes 0.7 million cells per mL, 1 uM compound; for Hepatocyte Stability Mouse % rem. 120 min: mouse hepatocytes
Description: Cryopreserved mouse hepatocytes were obtained from a pool of 10 or more male CD-1 mice. Cryopreserved human hepatocytes were obtained from a pool of 10 or more donors of mixed gender. Final hepatocyte density was 0.7 million viable cells per mL and test compound concentration was 1 uM with a maximum of 0.01% DMSO. Cryopreserved hepatocytes were thawed, washed, and resuspended in Krebs-Heinslet buffer (pH 7.3). The reaction was initiated by adding the test compound into cell suspension and incubated for 0, […], 1, 1.5, and 2 h, respectively, at 37° C./5% C02. The reaction was stopped by adding acetonitrile into the incubation mixture. Samples were then mixed, transferred completely to another 96-well plate, and centrifuged. Supernatants were used for HPLC-MS/MS analysis. […] Peak areas corresponding to the test compound were recorded.

[3] = Microsomal Stability Assay, mouse liver microsomes; format: in vitro ADME; details: for microsomal CLint at 0.1 uM: male, CD-1, pH 7.4, mouse liver microsomes 0.1 mg/mL, 0.1 uM compound; for Microsomal Stability Mouse % rem. 60 min: mouse liver microsomes
Description: Samples were then mixed and centrifuged. Supernatants were used for HPLC-MS/MS analysis. […] Peak areas corresponding to the test compound were recorded.

[4] = HCT-116, 2 hours following radiation, Example 9 Study 2, read-out: Spheroid Cell line: HCT116 Immunohistochemical endpoint pDNA-PK inhibition EC50
[5] = HCT-116, Spheroid, Cell Line: HCT115 (so in the source), 2 hours following radiation, Example 7, read-out: EC50, Immunohistochemical endpoint, pDNA-PK inhibition
[6] = HCT-116, 2 h, spheroids, Example 8, read-out: Cell line: HCT116 Immunohistochemical endpoint pDNA-PK inhibition EC50

Structure (SMILES)	EC50 [1, 4]	EC50 [1, 5]	hepatocyte CLint at 1 uM [2]	Hepatocyte Stability Mouse % rem. 120 min [2]	microsomal CLint at 0.1 uM [3]	Microsomal Stability Mouse % rem. 60 min [3]	EC50 [1, 6]
O=C(Cn1c(=O)n(C2CCOCC2)c2nc(N[C@H]3CC[C@@H](Oc4nc(N5CCOCC5)cc5ncccc45)CC3)ncc21)N1CCOCC1 [Compound 98, 2-(((1s,4s)-4-((7-Morpholino-1,6-naphthyridin-5-yl)oxy)cyclohexyl)amino)-7-(2-morpholino-2-oxoethyl)-9-(tetrahydro-2H-pyran-4-yl)-7,9-dihydro-8H-purin-8-one]	10 to 500 nM	10 to 500 nM	< 8.2 µL/min/1e6 cells	G (% remaining = 50-75%)	–	–	–
CS(=O)(=O)c1cnc2cc(N3CCOCC3)nc(O[C@H]3CC[C@@H](Nc4ncccn4)CC3)c2c1 [Compound 200b, N-((1s,4s)-4-((3-(methylsulfonyl)-7-morpholino-1,6-naphthyridin-5-yl)oxy)cyclohexyl)pyrimidin-2-amine]	1000 to 10000 nM	1000 to 10000 nM	< 8.2 µL/min/1e6 cells	G (% remaining = 50-75%)	–	–	–
O=C(NO)c1cnc2cc(N3CCOCC3)nc(O[C@H]3CC[C@@H](n4ccnc4)CC3)c2c1 [Compound 172, 5-(((1s,4s)-4-(1H-imidazol-1-yl)cyclohexyl)oxy)-N-hydroxy-7-morpholino-1,6-naphthyridine-3-carboxamide]	1000 to 10000 nM	1000 to 10000 nM	> 8.2 µL/min/1e6 cells	F (% remaining = 25-50%)	< 116 µL/min/mg	G (% remaining = 50-75%)	1000 to 10000 nM
CS(=O)(=O)c1cnc2cc(N3CCOCC3)nc(O[C@H]3CC[C@@H](Nc4ncnc5ccoc45)CC3)c2c1 [Compound 204b, N-((1s,4s)-4-((3-(methylsulfonyl)-7-morpholino-1,6-naphthyridin-5-yl)oxy)cyclohexyl)furo[3,2-d]pyrimidin-4-amine]	10 to 500 nM	10 to 500 nM	< 8.2 µL/min/1e6 cells	G (% remaining = 50-75%)	–	–	–
CS(=O)(=O)c1cnc2cc(N3CCOCC3)nc(O[C@H]3CC[C@@H](Nc4ncc(OCC(=O)N5CCOCC5)cn4)CC3)c2c1 [Compound 204a, 2-((2-(((1s,4s)-4-((3-(methylsulfonyl)-7-morpholino-1,6-naphthyridin-5-yl)oxy)cyclohexyl)amino)pyrimidin-5-yl)oxy)-1-morpholinoethan-1-one]	1000 to 10000 nM	1000 to 10000 nM	< 8.2 µL/min/1e6 cells	H (% remaining = 75-100%)	–	–	–
O=C(Cn1c(=O)n(C2CCOCC2)c2nc(N[C@H]3CC[C@@H](Oc4nc(N5CCOCC5)cc5ncccc45)CC3)ncc21)N1CCC1 [Compound 99, 7-(2-(Azetidin-1-yl)-2-oxoethyl)-2-(((1s,4s)-4-((7-morpholino-1,6-naphthyridin-5-yl)oxy)cyclohexyl)amino)-9-(tetrahydro-2H-pyran-4-yl)-7,9-dihydro-8H-purin-8-one]	10 to 500 nM	10 to 500 nM	< 8.2 µL/min/1e6 cells	G (% remaining = 50-75%)	–	–	–
c1cnc2cc(N3CCOCC3)nc(O[C@H]3CC[C@@H](Nc4ncc(OCCN5CCOCC5)cn4)CC3)c2c1 [Compound 68, N-((1s,4s)-4-((7-Morpholino-1,6-naphthyridin-5-yl)oxy)cyclohexyl)-5-(2-morpholinoethoxy)pyrimidin-2-amine]	500 to 1000 nM	500 to 1000 nM	< 8.2 µL/min/1e6 cells	G (% remaining = 50-75%)	< 116 µL/min/mg	F (% remaining = 25-50%)	–
CS(=O)(=O)c1cnc2cc(N3CCOCC3)nc(O[C@H]3CC[C@@H](NC(=O)c4ncco4)CC3)c2c1 [Compound 204c, N-((1s,4s)-4-((3-(methylsulfonyl)-7-morpholino-1,6-naphthyridin-5-yl)oxy)cyclohexyl)oxazole-2-carboxamide]	1000 to 10000 nM	1000 to 10000 nM	< 8.2 µL/min/1e6 cells	G (% remaining = 50-75%)	–	–	–
O=S(=O)(CC(F)F)Nc1cnc2cc(N3CCOCC3)nc(O[C@H]3CC[C@@H](Nc4ncccn4)CC3)c2c1 [Compound 193, 2,2-difluoro-N-(7-morpholino-5-(((1s,4s)-4-(pyrimidin-2-ylamino)cyclohexyl)oxy)-1,6-naphthyridin-3-yl)ethane-1-sulfonamide]	1000 to 10000 nM	1000 to 10000 nM	> 8.2 µL/min/1e6 cells	F (% remaining = 25-50%)	–	–	–
Cn1c(=O)n(C2CCOCC2)c2nc(N[C@H]3CC[C@@H](Oc4nc(N5CCOCC5)cc5ncccc45)CC3)ncc21 [Compound 96, 7-Methyl-2-(((1s,4s)-4-((7-morpholino-1,6-naphthyridin-5-yl)oxy)cyclohexyl)amino)-9-(tetrahydro-2H-pyran-4-yl)-7,9-dihydro-8H-purin-8-one]	500 to 1000 nM	500 to 1000 nM	< 8.2 µL/min/1e6 cells	G (% remaining = 50-75%)	–	–	–
CS(=O)(=O)NC(=O)c1cnc2cc(N3CCOCC3)nc(O[C@H]3CC[C@@H](n4ccnc4)CC3)c2c1 [Compound 175, 5-(((1s,4s)-4-(1H-imidazol-1-yl)cyclohexyl)oxy)-N-(methylsulfonyl)-7-morpholino-1,6-naphthyridine-3-carboxamide]	10000 to 100000 nM	10000 to 100000 nM	–	–	< 116 µL/min/mg	H (% remaining = 75-100%)	10000 to 100000 nM
Cn1c(=O)n(C)c2nc(N[C@H]3CC[C@@H](Oc4nc(N5CCOCC5)cc5ncccc45)CC3)ncc21 [Compound 101, 7,9-Dimethyl-2-(((1s,4s)-4-((7-morpholino-1,6-naphthyridin-5-yl)oxy)cyclohexyl)amino)-7,9-dihydro-8H-purin-8-one]	10 to 500 nM	10 to 500 nM	> 8.2 µL/min/1e6 cells	F (% remaining = 25-50%)	–	–	–
O=c1[nH]c2cnc(N[C@H]3CC[C@@H](Oc4nc(N5CCOCC5)cc5ncccc45)CC3)nc2n1C1CCOCC1 [Compound 95, 2-(((1s,4s)-4-((7-Morpholino-1,6-naphthyridin-5-yl)oxy)cyclohexyl)amino)-9-(tetrahydro-2H-pyran-4-yl)-7,9-dihydro-8H-purin-8-one]	10 to 500 nM	10 to 500 nM	> 8.2 µL/min/1e6 cells	F (% remaining = 25-50%)	–	–	–
Cn1c(=O)[nH]c2cnc(N[C@H]3CC[C@@H](Oc4nc(N5CCOCC5)cc5ncccc45)CC3)nc21 [Compound 100, 9-Methyl-2-(((1s,4s)-4-((7-morpholino-1,6-naphthyridin-5-yl)oxy)cyclohexyl)amino)-7,9-dihydro-8H-purin-8-one]	10 to 500 nM	10 to 500 nM	> 8.2 µL/min/1e6 cells	E (% remaining = 0-25%)	–	–	–
CN(C)C(=O)Cn1c(=O)n(C)c2nc(N[C@H]3CC[C@@H](Oc4nc(N5CCOCC5)cc5ncccc45)CC3)ncc21 [Compound 102, N,N-Dimethyl-2-(9-methyl-2-(((1s,4s)-4-((7-morpholino-1,6-naphthyridin-5-yl)oxy)cyclohexyl)amino)-8-oxo-8,9-dihydro-7H-purin-7-yl)acetamide]	10 to 500 nM	10 to 500 nM	< 8.2 µL/min/1e6 cells	H (% remaining = 75-100%)	–	–	–
O=S(=O)(CF)Nc1cnc2cc(N3CCOCC3)nc(O[C@H]3CC[C@@H](Nc4ncccn4)CC3)c2c1 [Compound 192, 1-fluoro-N-(7-morpholino-5-(((1s,4s)-4-(pyrimidin-2-ylamino)cyclohexyl)oxy)-1,6-naphthyridin-3-yl)methanesulfonamide]	10 to 500 nM	10 to 500 nM	< 8.2 µL/min/1e6 cells	H (% remaining = 75-100%)	–	–	–
